Measured values published in patent US20040023983A1, “Methods of use of fluoroquinolone compounds against pathogenic helicobacter bacteria” (priority 2003, published 2004).
In brackets after ≈: the same amount, converted by molar mass.

Tests used:
[1] = tested on: H. pylori; test: NCCLS agar dilution MIC, 21 H. pylori strains; type: cell-based, Helicobacter pylori; conditions: 21 isolates of H. pylori, read at 72 hours; for MIC50 / MIC90: Helicobacter pylori
Source text: (§1) The aim of the present invention is to evaluate the susceptibility of H. pylori to the new fluoroquinolone gemifloxacin (SB-265805). Twenty-one (21) H. pylori strains were obtained, including 16 clinical isolates CCUG 39297, CCUG 30988 (Lelwala-Guruge, J., Ljungh, A., & Wadstrom, T. 1992. APMIS 100, 908-13), CCUG 17875 (Lelwala-Guruge, J., Ljungh, A., & Wadstrom, T. 1992. APMIS 100, 908-13; Ilver, D., Arnqvist, A., Ogren, J., Frick, I. M., Kersulyte, D., Incecik, E. T. et al. 1998. Science 279, 373-7), CCUG 38771, CCUG 15818, CCUG 17874 (Lelwala-Guruge, J., Ljungh, A., & Wadstrom, T. 1992. APMIS 100, 908-13; O'Toole, P. W., Logan, S. M., Kostrzynska, M., Wadström, T., & Trust, T. J. 1991. Journal of Bacteriology 173, 505-513), CCUG 19087, CCUG 30987 (Lelwala-Guruge, J., Ljungh, A., & Wadstrom, T. 1992. APMIS 100, 908-13), CCUG 38772, CCUG 18943, CCUG 18295, CCUG 36718, CCUG 36719, CCUG 35899, CCUG 36720, CCUG 39924; and laboratory strains Not18, Not34, ATCC 43504, SS1, and ATCC 700392/26695. These strains include gastric biopsy isolates from the USA, Sweden, France, Belgium, UK, South Africa, and Australia Two of the clinical isolates are reported to have the cagA^+ genotype (strains CCUG 17874 and CCUG 17875) and three to be cagA^− (strains CCUG 36720, CCUG 36719, and CCUG 30988), but the cag genotype of the rest is unknown. […] The activities of amoxycillin, tetracycline and metronidazole against H. pylori ATCC 43504 were also tested as controls. The agar plates were inoculated using a Steers replicator and read at 72 hours.

[2] = tested on: H. pylori ATCC 43504; test: NCCLS agar dilution MIC, control antibiotics against quality control strain; type: cell-based; conditions: Helicobacter pylori, ATCC43504, read at 72 hours
Source text: as §1

## COc1c(N2CCNC(C)C2)c(F)cc2c(=O)c(C(=O)O)cn(C3CC3)c12 (stereo not drawn) [Gatifloxacin]
[1]
  MIC Range: 0.03 to 0.5 µg/mL
  MIC50: 0.13 µg/mL (≈ 0.346 µM)
  MIC90: 0.13 µg/mL (≈ 0.346 µM)

## CN(C)[C@@H]1C(O)=C(C(N)=O)C(=O)[C@@]2(O)C(O)=C3C(=O)c4c(O)cccc4[C@@](C)(O)[C@H]3C[C@@H]12 [tetracycline]
[2]
  MIC: 1 µg/mL (≈ 2.25 µM)

## Cc1ncc([N+](=O)[O-])n1CCO [metronidazole]
[2]
  MIC: 256 µg/mL (≈ 1500 µM)

## CC1(C)S[C@@H]2[C@H](NC(=O)[C@H](N)c3ccc(O)cc3)C(=O)N2[C@H]1C(=O)O [amoxycillin]
[2]
  MIC: 0.06 µg/mL (≈ 0.164 µM)

## CO/N=C1\CN(c2nc3c(cc2F)c(=O)c(C(=O)O)cn3C2CC2)CC1CN (racemic) [Gemifloxacin, (R,S)-7-(3-aminomethyl-4-methoxyiminopyrrolidin-1-yl)-1-cyclopropyl-6-fluoro-4-oxo-1,4-dihydro-1,8-naphthyridine-3-carboxylic acid]
[1]
  MIC Range: 0.03 to 1.0 µg/mL
  MIC50: 0.06 µg/mL (≈ 0.154 µM)
  MIC90: 0.13 µg/mL (≈ 0.334 µM)

## COc1c(N2C[C@@H]3CCCN[C@@H]3C2)c(F)cc2c(=O)c(C(=O)O)cn(C3CC3)c12 [Moxifloxacin]
[1]
  MIC Range: 0.13 to 2.0 µg/mL
  MIC50: 0.25 µg/mL (≈ 0.623 µM)
  MIC90: 0.5 µg/mL (≈ 1.25 µM)

## C[C@H]1COc2c(N3CCN(C)CC3)c(F)cc3c(=O)c(C(=O)O)cn1c23 [Levofloxacin]
[1]
  MIC Range: 0.13 to 2.0 µg/mL
  MIC50: 0.25 µg/mL (≈ 0.692 µM)
  MIC90: 0.5 µg/mL (≈ 1.38 µM)
